According to US20250134906A1 (Woolsey Pharmaceuticals, Inc., priority 2022, published 2025):
Counter-ions that a name gives are not always drawn.

Columns and labels:
[1] = Solubility and stability of unbuffered aqueous fasudil solutions stored at 60° C. for 42 days; type: physicochemical; details: 16-20 mg/ml
Procedure: Samples were stored at 60° C. for 42 days.

[2] = Stability of aqueous fasudil in 0.05M citrate buffer with or without EDTA, 60° C. for 36 days; type: physicochemical
Procedure: Samples were stored at 60° C. for 36 days.

SMILES: O=S(=O)(c1cccc2cnccc12)N1CCCNCC1 [Fasudil, hexahydro-1-(5-isoquinolinesulfonyl)-1H-1,4-diazepine monohydrochloride hemihydrate]
- changes in fasudil concentration or pH [1]: stable in the range of pH 4 to pH 6
- changes in pH or fasudil concentration [2]: compatible with EDTA in citrate buffer
